Data set [1] in a line: Selectivity index, ratio of IC50 for CHO cells to IC50 for chloroquine-sensitive Plasmodium falciparum D10. In kind it is toxicity, cell-based. The settings on record: hamster; read-out: Ratio IC50.
In data set [2] the test system is CHO. As to the kind of experiment: Cytotoxicity against CHO cells by MTT assay. The settings on record: for IC50: Cricetulus griseus, CHO. In kind it is cell-based, Cricetulus griseus. (In general: Tetrazolium dyes change colour on reduction, which living cells bring about.)
Data set [3] deals with Plasmodium falciparum. As to the kind of experiment: Ratio of chloroquine IC50 to compound IC50 for chloroquine-resistant Plasmodium falciparum Dd2. In kind it is functional.
Data set [4] concerns Plasmodium falciparum. As to the kind of experiment: Antimicrobial activity against chloroquine-resistant Plasmodium falciparum Dd2. In kind it is functional.
In data set [5] the test system is Plasmodium falciparum. Briefly: Antimicrobial activity against chloroquine-sensitive Plasmodium falciparum D10. The class given is functional.
Data set [6] concerns Plasmodium falciparum. As to the kind of experiment: Resistance index, ratio of IC50 for chloroquine-resistant Plasmodium falciparum Dd2 to IC50 for chloroquine-sensitive Plasmodium falciparum D10. The class given is functional.
For data set [7], the system named is Plasmodium falciparum. As to the kind of experiment: Resistance modification index, ratio of IC50 for chloroquine in presence of 10 uM compound to IC50 for chloroquine alone for chloroquine-resistant Plasmodium falciparum Dd2. The class given is functional.
For data set [8], the system named is Plasmodium falciparum. Briefly: Resistance modification index, ratio of IC50 for chloroquine in presence of 1 uM compound to IC50 for chloroquine alone for chloroquine-resistant Plasmodium falciparum Dd2. The class given is functional.

Where only a bound is given, the exact number is not on record here.

A word on the IC50: it is the concentration that inhibits the measured activity by half.

Regarding `OC12C3C4CC5C6C4C1C6C(C53)N2CCNc1ccnc2cc(Cl)ccc12` (configuration not stated), in data set [1], the selectivity ratio was determined as 2550. Also, the IC50 was found to be 9540 nM in data set [2], 27.6 nM in data set [4] and 3.74 nM in data set [5]. For the same molecule, the “Ratio IC50” value in data set [3] was determined as 5; in data set [6] it was 7.
In the case of `OC12C3C4CC5C6C4C1C6C(C53)N2CCCCNc1ccnc2cc(Cl)ccc12` (configuration not stated), in data set [1], the selectivity ratio came to 283. Besides, the IC50 in data set [2] turned out to be 2390 nM; in data set [4], 187 nM; in data set [5], 8.45 nM. Besides, in data set [6], the “Ratio IC50” value was 22.
As for `c1ccc(CNC23OC4C5C6CC(C7C6C4C72)C53)cc1` (configuration not stated), the “Ratio IC50” value in data set [7] was 0.48; in data set [8], 0.6. Also, in data set [2] (chinese hamster, cho), the Activity entry was “Non-toxic”. Moreover, the IC50 in data set [4] and in data set [5] was greater than 2000 nM each time.
For `CC[C@H]1CN2CCc3cc(OC)c(OC)cc3[C@@H]2C[C@@H]1C[C@H]1NCCc2cc(OC)c(OC)cc21` [EMETINE], in data set [2], half-maximal inhibition (IC50) was put at 61 nM.
With `OC12C3C4CC5C6C4C1C6C(C53)N2CCCCCCNc1ccnc2cc(Cl)ccc12` (configuration not stated), the selectivity ratio in data set [1] came out at 149. Moreover, the IC50 in data set [2] is 2630 nM; in data set [4] it was 253 nM; in data set [5], 17.6 nM. Also, the “Ratio IC50” value in data set [6] was 14.

The values above are taken from ChEMBL document CHEMBL3352505, “Pentacycloundecylamines and conjugates thereof as chemosensitizers and reversed chloroquine agents” (Bioorg Med Chem Lett, 2014).
